For 25 molecules, IC50 results are on record in patent US20230113609A1, “SSTR5 ANTAGONISTS” (Kallyope, Inc., priority 2019, published 2023).

The structures appear in SMILES notation.

In general, IC50 refers to the concentration needed to halve the response being measured. A high value points to a need for much substance.

T1 sequence (P35346 whole entry): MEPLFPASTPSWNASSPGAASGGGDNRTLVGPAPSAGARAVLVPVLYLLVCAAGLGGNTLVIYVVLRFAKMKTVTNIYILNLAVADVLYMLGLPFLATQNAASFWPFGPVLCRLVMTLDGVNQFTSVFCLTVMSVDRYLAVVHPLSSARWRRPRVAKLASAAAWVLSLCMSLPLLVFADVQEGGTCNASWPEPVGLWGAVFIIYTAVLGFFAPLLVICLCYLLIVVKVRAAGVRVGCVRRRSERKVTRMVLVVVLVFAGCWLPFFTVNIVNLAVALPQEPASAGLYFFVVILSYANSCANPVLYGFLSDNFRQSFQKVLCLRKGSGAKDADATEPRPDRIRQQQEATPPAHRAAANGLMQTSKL

The experiment has as its target T1, human SSTR5 (Homo sapiens, UniProt P35346).
T1 construct: expressed in transfected cells
Briefly: Inositol phosphate accumulation assay (IP1 HTRF, antagonist mode). It is filed as cell-based. As to conditions: CHO-K1 cells co-expressing human SSTR5 with Gqi5, SST28 agonist at concentration generating 90% of full activation. A digest of the protocol: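 CHO-K1 cells stably co-expressing human SSTR5 and chimeric Gqi5 were pre-incubated with compound 15 minutes at 37° C, then stimulated with SST28 (30 nM as added, about EC90) for 90 minutes. IP1 read by HTRF (665/620 nm). % inhibition normalized to Max/Min controls; IC50 and maximal inhibition from 4-parameter fit.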
On the technique in general: In TR-FRET formats the signal depends on donor and acceptor labels being close together.
In the case of `CCOc1cc(-c2ccc(F)cc2)c(C2CC2)cc1CN1CCC2(CC1)CN(c1ccc(C(=O)NCCCS(=O)(=O)O)cc1)C(=O)N2` [Example 66, 3-(4-(8-((2-cyclopropyl-5-ethoxy-4′-fluoro-[1,1′-biphenyl]-4-yl)methyl)-2-oxo-1,3,8-triazaspiro[4.5]decan-3-yl)benzamido)propane-1-sulfonic acid], the IC50 was not above 0.1 µM. Turning to `CCOc1cc(CN2CCC3(CC2)CN(c2ccc(C(=O)NC[C@H](O)[C@@H](O)[C@H](O)[C@H](O)CO)cc2)C(=O)O3)cc(CO)c1-c1ccc(F)cc1` [Example 3, 4-(8-((2-ethoxy-4′-fluoro-6-(hydroxymethyl)-[1,1′-biphenyl]-4-yl)methyl)-2-oxo-1-oxa-3,8-diazaspiro[4.5]decan-3-yl)-N-((2S,3R,4R,5R)-2,3,4,5,6-pentahydroxyhexyl)benzamide], the IC50 is more than 5 µM.

In turn, `CCOc1cc(-c2ccc(F)cc2)c(C2CC2)cc1CN1CCN(C(=O)Oc2ccc(C(=O)NC[C@H](O)[C@@H](O)[C@H](O)[C@H](O)CO)cc2)CC1` [compound 94] displayed an IC50 not above 0.1 µM. To `CCOc1cc(C(=O)OC)c(C2CC2)cc1CN1CCC2(CC1)CC(=O)N(c1ccc(C(=O)NCCCCP(=O)(O)O)cc1)C2` [Example 47, (4-(4-(8-(5-cyclopropyl-2-ethoxy-4-(methoxycarbonyl)benzyl)-3-oxo-2,8-diazaspiro[4.5]decan-2-yl)benzamido)butyl)phosphonic acid] belongs 0.1 to 1 µM; to `CCOc1cc(C(=O)OC)c(C2CC2)cc1CN1CCC2(CC1)CC(=O)N(c1ccc(C(=O)NCCCC(=O)O)cc1)C2` [Example 23, 4-(4-(8-(5-cyclopropyl-2-ethoxy-4-(methoxycarbonyl)benzyl)-3-oxo-2,8-diazaspiro[4.5]decan-2-yl)benzamido) butanoic acid], more than 5 µM. Under `CCOc1cc(-c2ccc(F)cc2)c(C2CC2)cc1CN1CCC2(CC1)CN(c1ccc(C(=O)NC[C@H](O)[C@@H](O)[C@H](O)[C@H](O)CO)cc1)C(=O)O2` [Example 60, 4-(8-((2-cyclopropyl-5-ethoxy-4′-fluoro-[1,1′-biphenyl]-4-yl)methyl)-2-oxo-1-oxa-3,8-diazaspiro[4.5]decan-3-yl)-N-((2S,3R,4R,5R)-2,3,4,5,6-pentahydroxyhexyl)benzamide] stands not above 0.1 µM. Turning to `CCOc1cc(-c2ccc(F)cc2)c(C2CC2)cc1CN1CCC2(CC1)CN(c1ccc(C(=O)NCCOCCO)cc1)S(=O)(=O)N2` [compound 87, 4-(8-((2-cyclopropyl-5-ethoxy-4′-fluoro-[1,1′-biphenyl]-4-yl)methyl)-2,2-dioxido-2-thia-1,3,8-triazaspiro [4.5]decan-3-yl)-N-(2-(2-hydroxyethoxy)ethyl)benzamide], the IC50 was not above 0.1 µM. `CCOc1cc(C(=O)OC)c(C2CC2)cc1CN1CCC2(CC1)CC(=O)N(c1ccc(C(=O)NCCC(=O)O)cc1)C2` [Example 25, 3-(4-(8-(5-cyclopropyl-2-ethoxy-4-(methoxycarbonyl)benzyl)-3-oxo-2,8-diazaspiro[4.5]decan-2-yl)benzamido)propanoic acid] came in with a half-maximal inhibitory concentration (IC50) of 0.1 to 1 µM. Under `CCOc1cc(C(=O)OC)c(C2CC2)cc1CN1CCC2(CC1)CC(=O)N(c1ccc(C(=O)NCC[N+](C)(C)C)cc1)C2` [Example 22, 2-(4-(8-(5-cyclopropyl-2-ethoxy-4-(methoxycarbonyl)benzyl)-3-oxo-2,8-diazaspiro[4.5]decan-2-yl)benzamido)-N,N,N-trimethylethan-1-aminium] stands 1 to 5 µM; under `CCOc1cc(C(=O)OC)c(C2CC2)cc1CN1CCC2(CC1)CN(c1ccc(C(=O)NCCO)cc1)C(=O)N2` [Example 75, methyl 2-cyclopropyl-5-ethoxy-4-((3-(4-((2-hydroxyethyl)carbamoyl)phenyl)-2-oxo-1,3,8-triazaspiro[4.5]decan-8-yl)methyl)benzoate], 0.1 to 1 µM; under `CCOc1cc(CN2CCC3(CC2)CN(c2ccc(C(=O)NCCNC(=O)NC(CO)(CO)CO)cc2)C(=O)O3)cc(OCC)c1-c1ccc(F)cc1` [Example 7, 4-(8-((2,6-diethoxy-4′-fluoro-[1,1′-biphenyl]-4-yl)methyl)-2-oxo-1-oxa-3,8-diazaspiro[4.5]decan-3-yl)-N-(2-(3-(1,3-dihydroxy-2-(hydroxymethyl)propan-2-yl)ureido)ethyl)benzamide], not above 0.1 µM. To `CCOc1cc(C(=O)OC)c(C2CC2)cc1CN1CCC2(CC1)CC(=O)N(c1ccc(C(=O)NC(CO)(CO)CO)cc1)C2` [Example 21, methyl 2-cyclopropyl-4-((2-(4-((1,3-dihydroxy-2-(hydroxymethyl)propan-2-yl)carbamoyl)phenyl)-3-oxo-2,8-diazaspiro[4.5]decan-8-yl)methyl)-5-ethoxybenzoate] belongs more than 5 µM; to `CCOc1cc(C(=O)OC)c(C2CC2)cc1CN1CCC2(CC1)CC(=O)N(c1ccc(C(=O)NCCCNC(=N)N)cc1)C2` [Example 55, methyl 2-cyclopropyl-5-ethoxy-4-((2-(4-((3-guanidinopropyl)carbamoyl)phenyl)-3-oxo-2,8-diazaspiro [4.5]decan-8-yl)methyl)benzoate], 0.1 to 1 µM.

Take `CCOc1cc(C(=O)OC)c(C2CC2)cc1CN1CCC2(CC1)CC(=O)N(c1ccc(C(=O)NCCC[N+](C)(C)C)cc1)C2` [Example 28, 3-(4-(8-(5-cyclopropyl-2-ethoxy-4-(methoxycarbonyl)benzyl)-3-oxo-2,8-diazaspiro[4.5]decan-2-yl)benzamido)-N,N,N-trimethylpropan-1-aminium]: the IC50 was more than 5 µM. In turn, `CCOc1cc(C(=O)OC)c(C2CC2)cc1CN1CCC2(CC1)CC(=O)N(c1ccc(C(=O)NCCCS(=O)(=O)O)cc1)C2` [Example 30, 3-(4-(8-(5-cyclopropyl-2-ethoxy-4-(methoxycarbonyl)benzyl)-3-oxo-2,8-diazaspiro[4.5]decan-2-yl)benzamido)propane-1-sulfonic acid] showed an IC50 of more than 5 µM. To `CCOc1cc(C(=O)OC)c(C2CC2)cc1CN1CCC2(CC1)CC(=O)N(c1ccc(C(=O)NCCS(N)(=O)=O)cc1)C2` [Example 50, methyl 2-cyclopropyl-5-ethoxy-4-((3-oxo-2-(4-((2-sulfamoylethyl)carbamoyl)phenyl)-2,8-diazaspiro[4.5]decan-8-yl)methyl)benzoate] belongs 0.1 to 1 µM; to `CCOc1cc(C(=O)OC)c(C2CC2)cc1CN1CCC2(CC1)CC(=O)N(c1ccc(C(=O)N3C[C@H](O)[C@@H](O)C3)cc1)C2` [Example 43, methyl 2-cyclopropyl-4-((2-(4-((3S,4S)-3,4-dihydroxypyrrolidine-1-caibonyl)phenyl)-3-oxo-2,8-diazaspiro[4.5]decan-8-yl)methyl)-5-ethoxy benzoate], more than 5 µM.

As to `CCOc1cc(C(=O)OC)c(C2CC2)cc1CN1CCC2(CC1)CC(=O)N(c1ccc(C(=O)N(CCO)CCO)cc1)C2` [Example 34, methyl 4-((2-(4-(bis(2-hydroxyethyl)carbamoyl)phenyl)-3-oxo-2,8-diazaspiro[4.5]decan-8-yl)methyl)-2-cyclopropyl-5-ethoxybenzoate], the IC50 is 1 to 5 µM.

The molecule `CCOc1cc(-c2ccc(F)cc2)c(C2CC2)cc1CN1CCC2(CC1)CN(c1ccc(C(=O)NCCOCCO)cc1)C(=O)N2` [compound 65, 4-(8-((2-cyclopropyl-5-ethoxy-4′-fluoro-[1,1′-biphenyl]-4-yl)methyl)-2-oxo-1,3,8-triazaspiro[4.5]decan-3-yl)-N-(2-(2-hydroxyethoxy)ethyl)benzamide] gave an IC50 not above 0.1 µM. The molecule `CCOc1cc(-c2ccc(F)cc2)c(C2CC2)cc1CN1CCC2(CC1)CN(c1ccc(C(=O)NCCCS(=O)(=O)O)cc1)C(=O)O2` [Example 63, 3-(4-(8-((2-cyclopropyl-5-ethoxy-4′-fluoro-[1,1′-biphenyl]-4-yl)methyl)-2-oxo-1-oxa-3,8-diazaspiro[4.5]decan-3-yl)benzamido)propane-1-sulfonic acid] yielded an IC50 not above 0.1 µM. Under `CCOc1cc(C(=O)OC)c(C2CC2)cc1CN1CCC2(CC1)CC(=O)N(c1ccc(C(=O)NCCN3CCNC3=O)cc1)C2` [Example 40, methyl 2-cyclopropyl-5-ethoxy-4-((3-oxo-2-(4-((2-(2-oxoimidazolidin-1-yl)ethyl)carbamoyl)phenyl)-2,8-diazaspiro[4.5]decan-8-yl)methyl)benzoate] stands 0.1 to 1 µM; under `CCOc1cc(C(=O)OC)c(C2CC2)cc1CN1CCC2(CC1)CC(=O)N(c1ccc(C(=O)NCCCCS(=O)(=O)O)cc1)C2` [Example 31, 4-(4-(8-(5-cyclopropyl-2-ethoxy-4-(methoxycarbonyl)benzyl)-3-oxo-2,8-diazaspiro[4.5]decan-2-yl)benzamido)butane-1-sulfonic acid], more than 5 µM. The molecule `CCOc1cc(C(=O)OC)c(C2CC2)cc1CN1CCC2(CC1)CC(=O)N(c1ccc(C(=O)NCCCNC(N)=O)cc1)C2` [Example 39, methyl 2-cyclopropyl-5-ethoxy-4-((3-oxo-2-(4-((3-ureidopropyl)carbamoyl)phenyl)-2,8-diazaspiro[4.5]decan-8-yl)methyl)benzoate] had an IC50 of 0.1 to 1 µM. As for `CCOc1cc(-c2ccc(F)cc2)c(C2CC2)cc1CN1CCC2(CC1)CN(c1ccc(C(=O)NCCCS(N)(=O)=O)cc1)C(=O)O2` [Example 64, 4-(8-((2-cyclopropyl-5-ethoxy-4′-fluoro-[1,1′-biphenyl]-4-yl)methyl)-2-oxo-1-oxa-3,8-diazaspiro[4.5]decan-3-yl)-N-(3-sulfamoylpropyl)benzamide], the IC50 was not above 0.1 µM.

As to `CCOc1cc(C#N)c(C2CC2)cc1CN1CCN(C(=O)Oc2ccc(C(=O)NCCCC(=O)NCCO)cc2)CC1` [compound 95, [4-[[4-(2-hydroxyethylamino)-4-oxo-butyl]carbamoyl]phenyl]4-[(4-cyano-5-cyclopropyl-2-ethoxy-phenyl)methyl]piperazine-1-carboxylate], the IC50 was more than 5 µM.
